Source: patent US20240294465A1, “NOVEL ANTI-FIBROTIC DRUGS” (HELMHOLTZ ZENTRUM MUNCHEN - DEUTSCHES FORSCHUNGSZENTRUM FUR …, priority 2021, published 2024)

Experiments:
[1] = tested on: collagen I, collagen V, fibulin 1, fibronectin, αSMA protein in phLFs; assay: Western blotting of ECM proteins and αSMA in phLFs (lysates and medium supernatants); assay type: cell-based, human
Experimental: Cells were scraped off the plastic dish directly into 200 μl ice-cold RIPA buffer containing 1× Roche complete mini protease inhibitor cocktail. After incubating the samples for 30 minutes on ice, insoluble material was removed by centrifugation at 14.000 g for 15 minutes at 4° C. and the supernatant was further processed. Samples were mixed with 50 mM Tris-HCl, pH 6.8, 100 mM DTT, 2% SDS, 1% bromphenol blue, and 10% glycerol, and proteins were separated using standard SDS-10% PAGE. For immunoblotting, proteins were transferred to PVDF (Millipore (Billerica, MA, (USA)), 0.45 μm or 0.2 μm) membranes, which were blocked with 5% milk in TBST (0.1% Tween 20 in TBS) and incubated with primary, followed by HRP-conjugated secondary antibodies over night at 4° C. and at room temperature for 1 hour, respectively. For immunoblotting the following primary antibodies were used: monoclonal mouse anticollagen type 5 (1 mg/mL) from […] (Cat #sc-166155), polyclonal rabbit anti-collagen type 3 (1 mg/mL) from Rockland (Cat #600-401-105), polyclonal rabbit anti-collagen type 1 (1 mg/mL) from Rockland (Cat #600-401-103-0.5), monoclonal mouse anti-fibulin 1 (1 mg/mL) from SantaCruz (Cat #sc-25281), polyclonal rabbit anti-fibronectin (1 mg/mL) from SantaCruz (Cat #sc-9068), and monoclonal mouse anti-p-actin-peroxidase (AC-15, Sigma, 1:10000). Goat anti-rabbit and goat anti-mouse IgG conjugated to horseradish peroxidase (Cell Signaling, 1:10000) were applied as secondary antibodies. CXCL/IL-8 concentrations were determined using Human IL-8/CXCL8 DuoSet ELISA (DY208-05) according to the manufacturer's protocol.

[2] = tested on: ECM deposition of collagen I, collagen V and fibulin 1 by phLFs+TGFβ1; assay: 3D ECM deposition assay (collagen I, collagen V, fibulin 1), dose-response and live imaging; assay type: cell-based, human; details: phLFs+TGFβ1+EDHB
Experimental: phLFs were cultured in DMEM F-12 medium with 20% fetal bovine serum (FBS) and antibiotic supplement as mentioned above. Cells were seeded with 6000 cells/well in 384-well CellCarrier plates (Perkin Elmer, Cat #6007550). Following overnight incubation, cells were starved in serum-reduced medium (1% FBS with 0.1 mM 2-phosphoascorbate (Sigma, Cat #49752)) for 24 h. Afterwards, cells were treated with TGFβ1 (1 ng/ml) or vehicle, and additionally small molecules or appropriate vehicle controls were added. […] Fluorescenceconjugation of the collagen type 1 antibody was done by using the AlexaFluor-555 Protein Labeling Kit (Invitrogen, Cat #A20174) according to manufacturer's instructions. […]
Following fixation, the automated imaging was achieved by using aconfocal laser scanning microscope (LSM710, Zeiss) with automated focus detection for three-dimensional image acquisition (1024 px×1024 px×9 px which equals a dimension of 1417 μm×1417 μm×16 μm). For post-acquisition analysis images were imported into IMARIS software (Bitplane) and volume detection or alternatively quantification of the mean fluorescence intensity, as well as Hoechst-stained cell nuclei were automatically counted by using Imaris' spot detection algorithm. […]

[3] = tested on: TGFβ1-induced fibulin-1 ECM deposition in primary human lung IPF-fibroblasts (phLFs); assay: Assessing N23P activity in inhibiting ECM deposition in IPF-fibroblasts (fibulin-1 MFI); assay type: cell-based; details: for inhibition at 10 µM: Homo sapiens, 72 h, TGFβ1 1 ng/ml, MFI, one or two different IPF-phLFs (n=1-2)
Experimental: phLFs were cultured in DMEM F-12 medium with 20% fetal bovine serum (FBS) and antibiotic supplement as mentioned above. Cells were seeded with 6000 cells/well in 384-well CellCarrier plates (Perkin Elmer, Cat #6007550). Following overnight incubation, cells were starved in serum-reduced medium (1% FBS with 0.1 mM 2-phosphoascorbate (Sigma, Cat #49752)) for 24 h. Afterwards, cells were treated with TGFβ1 (1 ng/ml) or vehicle, and additionally small molecules or appropriate vehicle controls were added. After 72 h of incubation, medium was changed for starving medium with 1 μg/mL AlexaFluor-488 fluorophore conjugated anti-collagen-type-5 antibodies (SantaCruz, Clone C-5, Cat #sc-166155 AF488), 0.66 μg/mL AlexaFluor-555 fluorophore conjugated anti-collagen-type-1 antibodies (Rockland, Cat #600-401-103-0.1), and 1 μg/mL AlexaFluor-637 fluorophore conjugated anti-fibulin 1 antibodies (SantaCruz, Clone C-5, Cat #sc-25281 AF647) and 1 μg/mL Hoechst H33342 (Sigma). Fluorescenceconjugation of the collagen type 1 antibody was done by using the AlexaFluor-555 Protein Labeling Kit (Invitrogen, Cat #A20174) according to manufacturer's instructions. Labeling efficacy was controlled by photometrical means.
Following four hours of incubation, cells were washed three times with PBS and fixed with paraformaldehyde (PFA). For automated liquid handling in 384 well plates, an INTEGRA Assist Plus (INTEGRA, Zizers, Switzerland) equipped with an INTEGRA Viaflo 1I pipette (INTEGRA, Zizers, Switzerland, Cat #4642), 125 μL GripTips™ pipette tips (INTEGRA, Zizers, Switzerland, Cat #6464) and sterile reagent reservoirs (INTEGRA, Cat #4311) were applied. All automated pipetting steps with the INTEGRA Assist Plus were performed at 9.5 μL/s in order to ensure proper integrity and attachment of the deposited ECM to the culturing surface within the wells of the 384-well plates. During cell seeding the automated liquid handling was performed at 89.3 μL/s. Removal of liquids from the well-plates was done by manually inverting the plates.
Following fixation, the automated imaging was achieved by using aconfocal laser scanning microscope (LSM710, Zeiss) with automated focus detection for three-dimensional image acquisition (1024 px×1024 px×9 px which equals a dimension of 1417 μm×1417 μm×16 μm). For post-acquisition analysis images were imported into IMARIS software (Bitplane) and volume detection or alternatively quantification of the mean fluorescence intensity, as well as Hoechst-stained cell nuclei were automatically counted by using Imaris' spot detection algorithm.
Cells were seeded with 6000 cells/well in 384-well CellCarrier plates. After overnight incubation, cells were starved in serum-reduced medium (1% FBS with 0.1 mM 2-phosphoascorbate for 24 h). Then, phLFs were treated with TGFβ1 (1 ng/ml) or vehicle, and incubated together with synthesized N23Ps (10 μM) or appropriate vehicle controls. After 72 h of incubation, medium was changed for starvation medium with 1 μg/mL AlexaFluor-637 fluorophore conjugated anti-fibulin 1 antibodies (SantaCruz, Clone C-5, Cat #sc-25281 AF647) and 1 μg/mL Hoechst H33342 (Sigma). Following four hours of incubation, cells were washed three times with PBS and fixed with paraformaldehyde (PFA). Following fixation, the automated imaging was achieved by using a confocal laser scanning microscope (LSM710, Zeiss) with automated focus detection for three-dimensional image acquisition (1024 px×1024 px×9 px which equals a dimension of 1417 μm×1417 μm×16 μm). For post-acquisition analysis images were imported into IMARIS software (Bitplane) and quantified for the mean fluorescence intensity, as well as Hoechst-stained cell nuclei were automatically counted by using Imaris' spot detection algorithm.
Assessment of ECM inhibition I: Mean fluorescence intensity (MFI) values represented the degree of fibulin-1 ECM deposition in three different IPF-phLFs (n=3). […]

[4] = concomitant treatment with TGFβ1

SMILES: C[C@H]1CCC/C=C/[C@@H]2C[C@H](O)C[C@H]2[C@H](O)/C=C/C(=O)O1 [BrefeldinA]
- secretion of collagen I and fibronectin ([1]; medium supernatants of phLFs): inhibited the secretion

SMILES: CCOC(=O)c1ccc(O)c(O)c1 [EDHB, Ethyl-3,4-dihydroxy-benzoate]
- expression of intracellular collagen I, collagen V and fibulin 1 [1, 4]: statistically significant suppression
- secreted collagen I [1, 4]: significant suppression
- ECM deposition of collagen I, collagen V and fibulin 1 [2]: inhibits the ECM deposition

SMILES: C#CCOc1ccc(/C=C/C(=O)Nc2ccccc2OCCC2(C)N=N2)cc1 [Example 167, (E)-N-(2-(2-(3-methyl-3H-diazirin-3-yl)ethoxy)phenyl)-3-(4-(prop-2-yn-1-yloxy)phenyl)acrylamide]
- inhibition at 10 µM [3]: 60 to 90%

SMILES: C#CCCCOc1ccc(/C=C/C(=O)Nc2ccccc2OCCC2(C)N=N2)cc1 [Example 168, (E)-N-(2-(2-(3-methyl-3H-diazirin-3-yl)ethoxy)phenyl)-3-(4-(pent-4-yn-1-yloxy)phenyl)acrylamide]
- inhibition at 10 µM [3]: 60 to 90%

SMILES: COc1ccc(/C=C/C(=O)Nc2ccccc2C(=O)O)cc1OC [Tranilast, reference compound]
- inhibition of TGFβ1-induced ECM deposition ([3]; at 10 μM): no inhibition
